Like-named read-outs stand apart in the source and are kept apart here.
Tested on: Myc
Test: Myc inhibition assay: Myc expression per cell by anti-Myc immunofluorescence, high-content imaging
Assay type: cell-based, human (patient-derived medulloblastoma xenograft cells)
Conditions: medulloblastoma PDX cells, 4 h
Description: To identify Myc inhibitors, cells isolated from patient-derived orthotopic xenografts (PDXs) from patients with Myc-driven medulloblastoma were used. Specifically, PDX cells were propagated by transplantation directly into the cerebellum of immunodeficient (NSG) mice and were never passaged in vitro in order to maintain properties of the tumor from which they were derived. Tumor tissues were isolated from tumor-bearing animals, dissociated into a single-cell suspension, resuspended in serum-free media, and immediately plated in 384 well plates. After overnight recovery, compounds were added to each well, and cells were incubated for 4 hours before being fixed and stained with anti-Myc antibodies and with DAPI to label nuclei. Cells were then analyzed using high-content imaging to determine the levels of Myc expression per cell and IC50 values of the compounds.

[1] = Table 1, read-out: IC50 (Myc inhibition)
[2] = Table 2, read-out: MYC Inhibition IC50

Row | IC50 [1] [nM] | IC50 [2] [nM] | Compound
1 | 1000 to 10000 | 1000 to 10000 | COc1cc(-c2ccnc(Nc3cccc(OCCN)c3)n2)ccn1 [Compound 121, N-(3-(2-aminoethoxy)phenyl)-4-(2-methoxypyridin-4-yl)pyrimidin-2-amine]
2 | 200 to 1000 | 200 to 1000 | COCCNc1cccc(Nc2nccc(-c3ccc4[nH]cnc4c3)n2)c1 [Compound 47, N^1-(4-(1H-benzo[d]imidazol-5-yl)pyrimidin-2-yl)-N^3-(2-methoxyethyl)benzene-1,3-diamine]
3 | 1000 to 10000 | 1000 to 10000 | FC(F)(F)c1cccc(Nc2nccc(-c3ccc4[nH]cnc4c3)n2)c1 [Compound 50]
4 | 1000 to 10000 | 1000 to 10000 | COc1ccc(-c2ccnc(Nc3cccc(F)c3)n2)s1 [Compound 176, N-(3-fluorophenyl)-4-(5-methoxythiophen-2-yl)pyrimidin-2-amine]
5 | 1000 to 10000 | 1000 to 10000 | COc1ccc(-c2ccnc(Nc3cccc(C(F)(F)F)c3)n2)cn1 [Compound 212, 4-(6-methoxypyridin-3-yl)-N-(3-(trifluoromethyl)phenyl)pyrimidin-2-amine]
6 | 1000 to 10000 | 1000 to 10000 | c1cc(Nc2nccc(-c3ccc4[nH]cnc4c3)n2)[nH]n1 [Compound 57, 4-(1H-benzo[d]imidazol-5-yl)-N-(1H-pyrazol-5-yl)pyrimidin-2-amine]
7 | 1000 to 10000 | 1000 to 10000 | COc1cc(-c2ccnc(Nc3cccc(C(C)(C)C)c3)n2)ccn1 [Compound 150, N-(3-(tert-butyl)phenyl)-4-(2-methoxypyridin-4-yl)pyrimidin-2-amine]
8 | 200 to 1000 | 200 to 1000 | O=S(=O)(Nc1ccc(F)cc1)c1cccc(Nc2nccc(-c3ccc4[nH]cnc4c3)n2)c1 [Compound 36, 3-((4-(1H-benzo[d]imidazol-5-yl)pyrimidin-2-yl)amino)-N-(4-fluorophenyl)benzenesulfonamide]
9 | 200 to 1000 | 200 to 1000 | CC(C)C(=O)Nc1cccc(Nc2nccc(-c3ccc4[nH]cnc4c3)n2)c1 [Compound 257, N-(3-((4-(1H-benzo[d]imidazol-5-yl)pyrimidin-2-yl)amino)phenyl)isobutyramide]
10 | 1000 to 10000 | 1000 to 10000 | c1csc(Nc2nccc(-c3ccc4[nH]cnc4c3)n2)c1 [Compound 84, 4-(1H-benzo[d]imidazol-5-yl)-N-(thiophen-2-yl)pyrimidin-2-amine]
11 | 1000 to 10000 | 1000 to 10000 | COc1cccc(Nc2nccc(-c3ccnc(O)c3)n2)c1 [Compound 191, 4-(2-((3-methoxyphenyl)amino)pyrimidin-4-yl)pyridin-2-ol]
12 | 200 to 1000 | 200 to 1000 | CN1CCN(c2cccc(Nc3nccc(-c4ccc5[nH]cnc5c4)n3)c2)CC1 [Compound 71, 4-(1H-benzo[d]imidazol-5-yl)-N-(3-(4-methylpiperazin-1-yl)phenyl)pyrimidin-2-amine]
13 | 1000 to 10000 | 1000 to 10000 | CC(C)(C)c1ccccc1Nc1nccc(-c2ccc3[nH]cnc3c2)n1 [Compound 53, 4-(1H-benzo[d]imidazol-5-yl)-N-(2-(tert-butyl)phenyl)pyrimidin-2-amine]
14 | 1000 to 10000 | 1000 to 10000 | FC(F)(F)c1nnc(Nc2nccc(-c3ccc4[nH]cnc4c3)n2)s1 [Compound 58, N-(4-(1H-benzo[d]imidazol-5-yl)pyrimidin-2-yl)-5-(trifluoromethyl)-1,3,4-thiadiazol-2-amine]
15 | 200 to 1000 | 200 to 1000 | c1cc(-c2ccc3[nH]cnc3c2)nc(Nc2cnoc2)n1 [Compound 56, N-(4-(1H-benzo[d]imidazol-5-yl)pyrimidin-2-yl)isoxazol-4-amine]
16 | 10000 to 100000 | 10000 to 100000 | CN(c1cccc(F)c1)c1nccc(-c2ccnc(O)c2)n1 [Compound 237, 4-(2-((3-fluorophenyl)(methyl)amino)pyrimidin-4-yl)pyridin-2-ol]
17 | 1000 to 10000 | 1000 to 10000 | FC(F)(F)c1cccc(Nc2nccc(NCCc3cnc[nH]3)n2)c1 [Compound 111, N^4-(2-(1H-Imidazol-4-yl)ethyl)-N^2-(3-(trifluoromethyl)phenyl)pyrimidine-2,4-diamine]
18 | < 200 | < 200 | Clc1cccc(Nc2nccc(-c3ccc4[nH]cnc4c3)n2)c1 [Compound 69, 4-(1H-benzo[d]imidazol-5-yl)-N-(3-chlorophenyl)pyrimidin-2-amine]
19 | 1000 to 10000 | 1000 to 10000 | Oc1cc(-c2ncnc(Nc3ccccc3)n2)ccn1 [Compound 233, 4-(4-(phenylamino)-1,3,5-triazin-2-yl)pyridin-2-ol]
20 | 1000 to 10000 | 1000 to 10000 | COc1cc(-c2ccnc(Nc3ccc(F)c(F)c3)n2)ccn1 [Compound 210, N-(3,4-difluorophenyl)-4-(2-methoxypyridin-4-yl)pyrimidin-2-amine]
21 | 10000 to 100000 | 10000 to 100000 | Oc1cc(-c2ccnc(Nc3ccnc(C(F)(F)F)c3)n2)ccn1 [Compound 156, 4-(2-((2-(trifluoromethyl)pyridin-4-yl)amino)pyrimidin-4-yl)pyridin-2-ol]

Row | IC50 [1] [nM] | IC50 [2] [nM] | Compound
22 | 10000 to 100000 | 10000 to 100000 | FC(F)(F)c1cncc(Nc2nccc(-c3ccc4[nH]cnc4c3)n2)c1 [Compound 14, 4-(1H-benzo[d]imidazol-5-yl)-N-(5-(trifluoromethyl)pyridin-3-yl)pyrimidin-2-amine]
23 | 10000 to 100000 | 10000 to 100000 | Oc1cc(-c2ccnc(Nc3ccncn3)n2)ccn1 [Compound 175, 4-(2-(pyrimidin-4-ylamino)pyrimidin-4-yl)pyridin-2-ol]
24 | 1000 to 10000 | 1000 to 10000 | CN1CCN(c2nccc(-c3ccc4[nH]cnc4c3)n2)CC1 [Compound 74, 5-(2-(4-methylpiperazin-1-yl)pyrimidin-4-yl)-1H-benzo[d]imidazole]
25 | 1000 to 10000 | 1000 to 10000 | OCCOc1cccc(Nc2nccc(-c3ccnc(O)c3)n2)c1 [Compound 128, 4-(2-((3-(2-hydroxyethoxy)phenyl)amino)pyrimidin-4-yl)pyridin-2-ol]
26 | 1000 to 10000 | 1000 to 10000 | Fc1cccc(Nc2nccc(-c3ccc4[nH]ccc4c3)n2)c1 [Compound 153, N-(3-fluorophenyl)-4-(1H-indol-5-yl)pyrimidin-2-amine]
27 | 10000 to 100000 | 10000 to 100000 | Fc1cccc(Nc2nccc(-c3ccc4[nH]ccc4c3)n2)c1 [Compound 202, N-(3-fluorophenyl)-4-(1H-indol-5-yl)pyrimidin-2-amine]
28 | 1000 to 10000 | 1000 to 10000 | c1cc(-c2ccc3[nH]cnc3c2)nc(NC2CCCCC2)n1 [Compound 96, 4-(1H-benzo[d]imidazol-5-yl)-N-cyclohexylpyrimidin-2-amine]
29 | < 200 | < 200 | CC(C)S(=O)(=O)c1cccc(Nc2nccc(-c3ccc4[nH]cnc4c3)n2)c1 [Compound 26, 4-(1H-benzo[d]imidazol-5-yl)-N-(3-(isopropylsulfonyl)phenyl)pyrimidin-2-amine]
30 | 200 to 1000 | 200 to 1000 | FC(F)(F)Oc1cccc(Nc2nccc(-c3ccc4[nH]cnc4c3)n2)c1 [Compound 100, 4-(1H-benzo[d]imidazol-5-yl)-N-(3-(trifluoromethoxy)phenyl)pyrimidin-2-amine]
31 | 10000 to 100000 | 10000 to 100000 | COc1cc(-c2ccnc(Nc3cc(C(F)(F)F)ccn3)n2)ccn1 [Compound 166, 4-(2-methoxypyridin-4-yl)-N-(4-(trifluoromethyl)pyridin-2-yl)pyrimidin-2-amine]
32 | < 200 | < 200 | Cc1ccc(Nc2nccc(-c3ccc4[nH]cnc4c3)n2)cc1C(F)(F)F [Compound 265, 4-(1H-benzo[d]imidazol-5-yl)-N-(4-methyl-3-(trifluoromethyl)phenyl)pyrimidin-2-amine]
33 | 200 to 1000 | 200 to 1000 | Cc1cccc(Nc2nccc(-c3ccnc(O)c3)n2)c1 [Compound 159, 4-(2-(m-tolylamino)pyrimidin-4-yl)pyridin-2-ol]
34 | 10000 to 100000 | 10000 to 100000 | COc1cccc(-c2ccnc(Nc3ccccc3)n2)n1 [Compound 236, 4-(6-methoxypyridin-2-yl)-N-phenylpyrimidin-2-amine]
35 | 200 to 1000 | 200 to 1000 | COc1cncc(-c2ccnc(Nc3cccc(F)c3)n2)c1 [Compound 203, N-(3-fluorophenyl)-4-(5-methoxypyridin-3-yl)pyrimidin-2-amine]
36 | < 200 | < 200 | c1cc(Nc2nccc(-c3ccc4[nH]cnc4c3)n2)cc(-c2ccncc2)c1 [Compound 43, 4-(1H-benzo[d]imidazol-5-yl)-N-(3-(pyridin-4-yl)phenyl)pyrimidin-2-amine]
37 | 1000 to 10000 | 1000 to 10000 | Fc1cccc(Nc2nccc(-c3cnc4nccn4c3)n2)c1 [Compound 273, N-(3-fluorophenyl)-4-(imidazo[1,2-a]pyrimidin-6-yl)pyrimidin-2-amine]
38 | 1000 to 10000 | 1000 to 10000 | COc1cc(-c2ccnc(Nc3cccc(F)c3)n2)ccn1 [Compound 243, N-(3-fluorophenyl)-4-(2-methoxypyridin-4-yl)pyrimidin-2-amine]
39 | 10000 to 100000 | 10000 to 100000 | Oc1cc(-c2ccnc(Cc3ccccc3)n2)ccn1 [Compound 229, 4-(2-Benzylpyrimidin-4-yl)pyridin-2-ol]
40 | < 200 | < 200 | Brc1cccc(Nc2nccc(-c3ccc4[nH]cnc4c3)n2)c1 [Compound 31, 4-(1H-benzo[d]imidazol-5-yl)-N-(3-bromophenyl)pyrimidin-2-amine]
41 | 1000 to 10000 | 1000 to 10000 | Oc1cc(-c2ccnc(Nc3cccc(F)c3F)n2)ccn1 [Compound 205, 4-(2-((2,3-difluorophenyl)amino)pyrimidin-4-yl)pyridin-2-ol]

From US20260356817A1, “AMINOPYRIMIDINE AND AMINOTRIAZINE DERIVATIVES AS MYC PROTEIN MODULATORS” (Sanford Burnham Prebys Medical Discovery Institute, priority 2022, published 2026)
